pIC50: −log10 of the molar value. Structures can show the parent of a compound that is named as a salt.
Assays:
[1] = Hygroscopicity evaluation (DVS); format: physicochemical; conditions: for water uptake up to 80% RH: DVS isotherm at 25 °C between 0% RH and 95% RH; for hygroscopicity (in words): DVS at 25 °C, water uptake up to 80% RH
Experimental: Compound 1 Freebase Type A/B/C, Compound 1 maleate salt Type A, and Compound 1 citrate salt Type A were evaluated for hygroscopicity. DVS isotherm plots were collected at 25 ? between 0% RH and 95% RH.

HCT116 MTAP−/− = assay: Inhibition of cellular proliferation (Cell Titer Glo), HCT116 MTAP-/-; format: cell-based; conditions: Homo sapiens, HCT-116, 120 h, 5 days treatment
Experimental: (§1) Test compound impact on cancer cell growth was assessed by treating cancer cells with compound for 5 days and then measuring proliferation using an ATP-based cell proliferation readout (Cell Titer Glo, Promega Corporation).
(§2) In a typical assay an isogenic pair of HCT116 human colon carcinoma cell lines which vary only in MTAP deletion status (HCT116 MTAP+/+ and HCT116 MTAP−/−) were plated in 96-well dishes at appropriate cell density. Following 24 hours, cells were then treated with the candidate MAT2A inhibitor. Prior to addition to cells, the compound was first serially diluted in DMSO, typically as a 3-fold serial dilution with 9 dose points.
(§3) Compound was then transferred to a working stock plate in cell culture media by adding 3 μl of compound in DMSO to 297 μl of cell culture media. […]
(§4) To measure inhibition of cellular proliferation, cells were allowed to equilibrate to room temperature for 30 minutes, and were then treated with 40 μl of Cell Titer Glo reagent. […] Luminescent signal of the Cell Titer Glo reagent was then measured using a plate-based luminometer and normalized via an ATP standard curve. This luminescence measure was converted to a proliferation index by subtracting from each datapoint the ATP luminescence measured from a control cell plate that was measured at the time of compound treatment. […]

HCT116 MTAP+/+ = assay: Inhibition of cellular proliferation (Cell Titer Glo), HCT116 WT (MTAP+/+); format: cell-based; conditions: Homo sapiens, HCT-116, 120 h, 5 days treatment
Experimental: as §1, §2, §3, §4

[2] = Pharmacokinetics in male Sprague Dawley rats, intravenous injection; format: in vivo; conditions: rat, plasma, 1 mg/kg; male SD rats, n=3, intravenous injection, 0.2 mg/mL, 5 mL/kg
Experimental: Test compounds was dissolved in 5% DMSO+95% (10% HP-β-CD in Saline) to a concentration of 0.2 mg/mL and given to SD rats (Male, n=3) by intravenous injection (5 mL/kg). Blood samples were collected at 0.083 h, 0.25, 0.5, 1, 2, 4, 8, and 24 h after injection (anticoagulant:K2-EDTA). These tubes were kept in an ice bath prior to centrifugation at approximately 6800 g for 6 minutes at approximately 5° C. Samples were analyzed for the presence of the test compound with an TQ5500 mass spectrometer (AB Sciex) coupled to an ACQUITY UPLC BEH C18 (1.7 μm, 2.1 mm×50 mm) HPLC column. Gradient elution was applied consisting of ultrapure water containing 0.1% formic acid and acetonitrile containing 0.1% formic acid. Standard set of parameters including Area Under the Curve (AUC (0-t) and […]), elimination half-live (T1/2), maximum plasma concentration (Cmax), time to reach maximum plasma concentration (Tmax) will be calculated using non-compartmental analysis modules in Phoenix WinNonlin 7.0 (Pharsight, USA).

[3] = Stability of 1 mg capsules (total impurity); format: physicochemical; conditions: 1 mg capsules in aluminum blister foils
Experimental: Compound 1 freebase Type A or Compound 1 maleate salt Type A was sieved with 40 mesh sieves, followed by mixing with the same amount of diluent, disintegrant and lubricant to prepare 1000 capsules. The strength of these capsules is 1 mg, and the capsules are packaged in aluminum blister foils. The stability of 1 mg capsules was investigated at 40° C./75% RH and 60° C., and the results were in Table 26.

[4] = Kinetic solubility evaluation; format: physicochemical; conditions: H2O, SGF and FaSSIF, 37 °C, solid loading ~10 mg/mL (calculated as freebase)
Experimental: Kinetic solubility of Compound 1 Freebase Type A, Compound 1 maleate salt Type A, and Compound 1 citrate salt Type A were measured in water, SGF (Simulated Gastric Fluid), FaSSIF (Fasted State Simulated Intestinal Fluid) and FeSSIF (Fed State Simulated Intestinal Fluid) at 37 ? with solid loading of ~10 mg/mL (calculated as freebase). The results are presented in FIG. 59A, FIG. 59B, FIG. 59C, and FIG. 59D.

C#CCNc1nc(=O)n(-c2cccnc2C)c2cc(C(F)(F)F)cc(OC)c12 [Compound 1 Freebase Type C, 5-methoxy-1-(2-methylpyridin-3-yl)-4-(prop-2-yn-1-ylamino)-7-(trifluoromethyl) quinazolin-2 (1H)-one]
water uptake up to 80% RH [1]: ~ 6.7%

C#CCNc1nc(=O)n(-c2cccnc2C)c2cc(C(F)(F)F)cc(OC)c12 [Compound 1 Freebase Type B, 5-methoxy-1-(2-methylpyridin-3-yl)-4-(prop-2-yn-1-ylamino)-7-(trifluoromethyl) quinazolin-2 (1H)-one]
water uptake up to 80% RH [1]: ~ 11.6%

C#CCNc1nc(=O)n(-c2cccnc2C)c2cc(C(F)(F)F)cc(OC)c12 [Compound 1 Freebase Type A, 5-methoxy-1-(2-methylpyridin-3-yl)-4-(prop-2-yn-1-ylamino)-7-(trifluoromethyl) quinazolin-2 (1H)-one]
hygroscopicity (in words) [1]: slightly hygroscopic | water uptake up to 80% RH [1]: ~ 0.3% | pIC50 (HCT116 MTAP−/−): 6.70 | pIC50 (HCT116 MTAP+/+): 4.68 | clearance [2]: 0.17 mL/min/kg | Total impurity ([3]; 40° C./75% RH, 0 d, listed as Free form Type A): 0.21% | Total impurity ([3]; 40° C./75% RH, 10 d, listed as Free form Type A): 0.95% | Total impurity ([3]; 60° C., 0 d, listed as Free form Type A): 0.21% | Total impurity ([3]; 60° C., 5 d, listed as Free form Type A): 4.4% | Total impurity ([3]; 60° C., 10 d): 8.04%

C#CCNc1nc(=O)n(-c2cccnc2C)c2cc(C(F)(F)F)cc(OC)c12 [Compound 1 citrate salt Type A, 5-methoxy-1-(2-methylpyridin-3-yl)-4-(prop-2-yn-1-ylamino)-7-(trifluoromethyl) quinazolin-2 (1H)-one]
hygroscopicity (in words) [1]: slightly hygroscopic | water uptake up to 80% RH [1]: 1.6% | kinetic solubility compared with Compound 1 Freebase Type A [4]: improved solubility

C#CCNc1nc(=O)n(-c2cccnc2C)c2cc(C(F)(F)F)cc(OC)c12 [Compound 1 maleate salt Type A, 5-methoxy-1-(2-methylpyridin-3-yl)-4-(prop-2-yn-1-ylamino)-7-(trifluoromethyl) quinazolin-2 (1H)-one]
hygroscopicity (in words) [1]: non-hygroscopic | water uptake up to 80% RH [1]: ~ 0.07% | Total impurity ([3]; 40° C./75% RH, 0 d, listed as Maleate Type A): 0.10% | Total impurity ([3]; 40° C./75% RH, 10 d, listed as Maleate Type A): 2.0% | Total impurity ([3]; 60° C., 0 d, listed as Maleate Type A): 0.10% | Total impurity ([3]; 60° C., 5 d, listed as Maleate Type A): 12.6% | kinetic solubility compared with Compound 1 Freebase Type A [4]: improved solubility | kinetic solubility compared with Compound 1 citrate salt Type A [4]: higher solubility

Reference: patent publication US20260285830A1, “CRYSTALLINE METHIONINE ADENOSYLTRANSFERASE 2a (MAT2A) INHIBITOR AND USES THEREOF” (Insilico Medicine IP Limited, priority 2023, published 2026)
